One data set relates to MEF WT cells. As to the kind of experiment: Cell viability assay in MEF WT cells. It counts as cell-based, mouse. Conditions: Mus musculus, NA = Not applicable, no cell death observed. As for the experimental part: (§1) Genetically engineered PARP-1 and PARP-2 double knockout mouse embryonic fibroblast (MEF) were used for cell viability studies with wildtype control.
(§2) Cell viability assays were carried out using four cell lines including OVCAR8, MEF wt, MEF PARP-1 (−/−) KO, and MEF PARP-2 (−/−) KO as described in Makvandi cited above. Briefly, cells were seeded in black wall clear bottom 96-well plates at concentrations of 1,000 cells/well. […] Plates were read on an Enspire multimode plate reader (Perkin Elmer). Data was normalized to percent survival at each concentration evaluated by diving the luminescent signal in treated wells vs. the average of vehicle controls. Experiments were repeated three times and all compounds were assayed during each experiment.
(§3) This isogenic model was selected due to the highly conserved nature of the PARP catalytic domain, all-owing investigation in enzyme specificity.

Another data set has as its target PARP-1 (Homo sapiens, UniProt P09874). As to the kind of experiment: PARP-1 radioligand binding in live OVCAR8 cells ([125I]KX1 competition). As to conditions: for IC50: radioligand binding in OVCAR8 cells. Here is the method:
Cells were cultured using standard techniques at 37° C. with 5% CO2 and 15% 02. […] Genetically engineered PARP-1 and PARP-2 double knockout mouse embryonic fibroblast (MEF) were used for cell viability studies with wildtype control. All cells were cultured in RPMI 1640 with 10% FBS and 1% penicillin/streptomycin.
The affinity of each compound for the PARP-1 enzyme was evaluated using a radioligand binding method described in Makvandi, A radiotracer strategy to quantify PARP-1 expression in vivo provides a biomarker that can enable patient selection for PARP inhibitor therapy. Cancer Research 2016. Briefly, OVCAR8 ovarian cancer cells were seeded in 96-well Stripwell plates at a density of 40,000 cells/well 24 hrs prior to the study. On the day of study, compounds were diluted in RPMI to concentrations of 100 μM-0.064 nM. […] Reactions were allowed to equilibrate for 1 hr and were then washed with 200 μL of PBS. Wells were separated and counted on an automatic Wizard gamma counter (Perkin Elmer, Waltham Mass.). […] Experiments were repeated three times with adjusting dose concentrations to increase accuracy of IC50 values.
Compounds 10-17 were evaluated for PARP-1 inhibition using a radioligand binding assay protocol with BRCA1 methylated ovarian cancer cells (OVCAR8) as described above. See, Table 3. […] Compared to 1a, oxaazaspiro analogue 1b performed slightly better with scaffold 10b displaying a PARP-1 binding value of 24.9 nM.

The test system of data set [1] is MEF PARP-2 (-/-) KO cells. Kind of data set: Cell viability assay in MEF PARP-2 KO-/- cells. It counts as cell-based, mouse. Conditions: Mus musculus, NA = Not applicable, no cell death observed. Here is the method: as §1, §2, §3
The cell cytotoxicity profile of these selected compounds in MEF PARP-2 KO−/− cell lines was then analyzed as described above.

Data set [2] concerns MEF PARP-1 (-/-) KO cells. As to the kind of experiment: Cell viability assay in MEF PARP-1 KO-/- cells. The data set is classed as cell-based. Conditions: Mus musculus, NA = Not applicable, no cell death observed. As for the experimental part:
as §1, §2, §3
Enzyme dependency of selected compounds in MEF PARP-1 KO−/− cells (FIG. 2B) was performed as described above in order to identify if these analogues act through other cellular targets.

A short description of data set [3]: Metabolite analysis of monkey blood from the imaging studies. It counts as in vivo, rhesus macaques. As for the experimental part:
(§4) All animal studies were performed under protocols approved by the University of Pennsylvania Institutional Animal Care and Use Committee. Male rhesus macaques (13-21 year old) were sedated with ketamine/dexdomidor and anesthesia maintained for imaging with 1% isoflurane. Temperature was maintained with a recirculating water warm pad and vital signs such as blood pressure, pulse oximetry, and EKG were monitored continuously. Three rhesus macaques were scanned on the G-PET, a high sensitivity, high resolution PET scanner using gadolinium orthosilicate crystals incorporated into an Anger-logic detector developed for brain imaging. […]
The blood samples were centrifuged at 3000 G for 10 min to separate plasma and red blood cells. […] After the supernatant had been separated from the pellet, each portion was counted with a gamma counter (PerkinElmer Wizard 2480) to determine the extraction efficiency. […] The collected HPLC fractions were measured by Gamma Counter for further data analysis. Meanwhile the cold reference was also injected and monitored at 254 nm UV wavelength.
(§5) These images are similar to the those obtained and expected with [^18F]FTT (FIG. 5B), showing the PARPi to be non-BBB penetrable. Metabolic stability of [^18F]31 was assessed using the monkey blood from each imaging study and found 42% and 45% of the parent compound intact at 40 min and 37 min, respectively.

Data set [4] in a line: Metabolic stability in rodent studies (mice blood and brain). As to conditions: 5 min. The data set is classed as in vivo. Here is the method: Rodent studies were then performed with [^18F]31, including control and P-gp knockout (k/o) mice models to validate the tracer as a non-P-gp substrate.
The nature of data set [5]: PET imaging of brain uptake in rhesus macaques. The data set is classed as in vivo. As to conditions: intravenous injection, all brain regions, FIG. 5A. Here is the method:
as §4, with “imaging. Data was acquired for up to 50 min (6×10 sec, 3×60 sec, 3×120 sec, 3×180 sec, 4×300 sec, and 1 ×600 sec) in list mode after an intravenous injection of 101.6 MBq [^18F]FTT to one of the rhesus macaques, and 91.4-128.8 MBq [^18F]31 to two of the rhesus macaques. A venous blood sample was drawn into a heparinized syringe at 37 min post […] injection for metabolite analysis.” for “imaging.”
as §5

The text below walks through data of patent publication US11542282B2, “Low affinity poly(AD-ribose) polymerase 1 dependent cytotoxic agents” (THE TRUSTEES OF THE UNIVERSITY OF PENNSYLVANIA, priority 2018, dated 2023).

SMILES strings stand for the structures.

As usually defined, the EC50 is the concentration at which the effect is half-maximal. A word on the IC50: it is the concentration that gives 50% inhibition.

Sequence of PARP-1 (P09874 whole entry): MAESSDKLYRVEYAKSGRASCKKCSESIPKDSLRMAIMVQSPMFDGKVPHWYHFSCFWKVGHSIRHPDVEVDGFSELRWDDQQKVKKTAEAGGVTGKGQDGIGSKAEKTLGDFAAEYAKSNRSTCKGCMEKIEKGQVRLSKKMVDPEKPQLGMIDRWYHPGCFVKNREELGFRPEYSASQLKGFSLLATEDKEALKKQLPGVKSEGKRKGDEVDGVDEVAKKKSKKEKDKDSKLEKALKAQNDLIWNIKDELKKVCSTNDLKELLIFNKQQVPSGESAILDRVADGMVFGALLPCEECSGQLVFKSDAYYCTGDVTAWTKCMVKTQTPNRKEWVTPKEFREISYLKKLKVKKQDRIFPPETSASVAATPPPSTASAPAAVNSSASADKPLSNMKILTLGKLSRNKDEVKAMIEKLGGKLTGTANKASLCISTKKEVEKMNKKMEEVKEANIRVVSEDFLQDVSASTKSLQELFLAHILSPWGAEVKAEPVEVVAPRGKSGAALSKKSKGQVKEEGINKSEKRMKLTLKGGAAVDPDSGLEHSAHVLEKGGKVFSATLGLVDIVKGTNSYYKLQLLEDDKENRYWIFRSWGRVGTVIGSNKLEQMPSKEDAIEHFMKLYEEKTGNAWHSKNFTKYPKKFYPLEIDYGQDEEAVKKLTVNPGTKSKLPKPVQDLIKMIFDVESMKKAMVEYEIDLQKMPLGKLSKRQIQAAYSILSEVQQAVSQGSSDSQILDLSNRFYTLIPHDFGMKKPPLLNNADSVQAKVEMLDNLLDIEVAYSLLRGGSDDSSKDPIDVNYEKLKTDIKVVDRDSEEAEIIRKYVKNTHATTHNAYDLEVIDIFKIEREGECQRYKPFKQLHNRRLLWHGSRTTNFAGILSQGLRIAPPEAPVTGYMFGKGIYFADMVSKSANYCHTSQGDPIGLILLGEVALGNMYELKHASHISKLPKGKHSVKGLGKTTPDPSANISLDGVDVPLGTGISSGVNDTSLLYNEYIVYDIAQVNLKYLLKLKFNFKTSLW

As for `CC(C)(C)OC(=O)N1CCC2(CC1)CCN(C(=O)c1cc(Cc3n[nH]c(=O)c4ccccc34)ccc1F)CC2` [Compound 17b, Tert-butyl 9-(2-fluoro-5-((4-oxo-3,4-dihydrophthalazin-1-yl)methyl)benzoyl)-3,9-diazaspiro[5.5]undecane-3-carboxylate], the EC50 was 16.9 µM in the data set on MEF WT cells, 0.453 µM at PARP-1, 19.2 µM in data set [1] and 43.4 µM in data set [2]. In addition, on PARP-1, the IC50 was found to be 0.453 µM.

For `O=C(c1cc(Cc2n[nH]c(=O)c3ccccc23)ccc1F)N1CCC2(CC1)CCN(C(=O)C1CC1)CC2` [Compound 17d, 4-(3-(9-(Cyclopropanecarbonyl)-3,9-diazaspiro[5.5]undecane-3-carbonyl)-4-fluorobenzyl)phthalazin-1(2H)-one], the EC50 with MEF WT cells is 24.8 µM; on PARP-1 it was 0.0443 µM; in data set [1], 21.6 µM; in data set [2], 49.7 µM. On PARP-1, the IC50 was 0.0443 µM.

With `O=C(c1cc(Cc2n[nH]c(=O)c3ccccc23)ccc1F)N1CCC(OCC[18F])CC1` [[^18F]31], the results for the parent compound intact in data set [3] (37 min) and in data set [3] (40 min) were 45% and 42%, respectively. Further, the “decomposition of the parent compound” value in data set [4] is given as “over 80%”. In addition, the entries for the “brain uptake (PET)” value in data set [5] and in data set [5] (listed as [18F]31) were “low brain uptake” and “no appreciable brain uptake”, respectively.
